The target in assay [1] is isolated recombinant JAK1 kinase domain (Homo sapiens (Human), UniProt P23458). Kind of assay: JAK1 enzyme assay (Caliper LabChip, Ki). The format is biochemical. As to conditions: read-out: JAK1 Ki. A digest of the protocol: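 Ki derived via Morrison tight-binding model, ATP-competitive correction applied. Read-out: product/total ratio of a 5-carboxyfluorescein-tagged JAK3 peptide separated on Caliper LabChip after phosphorylation by isolated human JAK1 kinase domain (22 °C, 30 min; EDTA quench, 50 mM final).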
Sequence of isolated recombinant JAK1 kinase domain (P23458 875-1153): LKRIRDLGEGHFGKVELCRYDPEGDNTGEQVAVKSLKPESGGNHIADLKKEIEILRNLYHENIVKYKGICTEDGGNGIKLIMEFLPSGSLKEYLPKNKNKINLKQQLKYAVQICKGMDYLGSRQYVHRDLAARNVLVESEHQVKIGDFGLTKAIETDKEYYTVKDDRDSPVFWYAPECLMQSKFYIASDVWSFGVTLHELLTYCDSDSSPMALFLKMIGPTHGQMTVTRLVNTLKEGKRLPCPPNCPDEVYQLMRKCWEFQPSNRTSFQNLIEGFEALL

Assay [2] deals with isolated recombinant JAK2 kinase domain (Homo sapiens (Human), UniProt O60674). Kind of assay: JAK2 enzyme assay (Caliper LabChip, Ki). The format is biochemical. A digest of the protocol:
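Caliper LabChip readout of phosphorylated product as a fraction of total substrate, a fluorescently N-terminally labelled JAK3-derived peptide. Isolated human JAK kinase domains were incubated 30 min at 22 °C before EDTA quench (50 mM final).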

Assay [3] relates to JAK1-dependent STAT6 phosphorylation downstream of IL-13 stimulation in BEAS-2B human bronchial epithelial cells. Kind of assay: JAK1 pathway assay in BEAS-2B cells (IL-13-pSTAT6, MSD). The format is cell-based. The conditions noted are these: Homo sapiens, BEAS-2B, BEAS-2B cells, IL-13 stimulation; read-out: IL-13 p-STAT6 BEAS-2B IC50.

Sequence of isolated recombinant JAK2 kinase domain (O60674 849-1124): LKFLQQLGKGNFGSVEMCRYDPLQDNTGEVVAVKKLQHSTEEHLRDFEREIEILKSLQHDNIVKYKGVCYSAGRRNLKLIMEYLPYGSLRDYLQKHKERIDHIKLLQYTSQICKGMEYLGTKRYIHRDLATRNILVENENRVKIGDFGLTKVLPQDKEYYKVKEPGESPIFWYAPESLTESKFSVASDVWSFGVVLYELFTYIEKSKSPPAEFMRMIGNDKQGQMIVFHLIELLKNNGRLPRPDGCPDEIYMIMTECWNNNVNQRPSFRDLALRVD

As for `N#CCC1(n2cc(C(N)=O)c(NC(=O)C3CC3)n2)CCC(Nc2ccc(-c3ccccc3)cc2)CC1` (stereo not drawn) [Example 245, 1-[1-(cyanomethyl)-4-(4-phenylanilino)cyclohexyl]-3-(cyclopropanecarbonylamino) pyrazole-4-carboxamide], the Ki – broadly, the equilibrium dissociation constant of an inhibitor or competing ligand from its target – is 230 pM in assay [1] and 920 pM in assay [2]. Moreover, the IC50 (usually the midpoint of a concentration-inhibition curve) in assay [3] turned out to be 14000 pM.

In the case of `COC(=O)Nc1nn(C2(CC#N)CCN(Cc3ccc(-c4ccc(C)o4)cc3)CC2F)cc1C(N)=O` (stereo not drawn) [Example 246, methyl N-[4-carbamoyl-1-[4-(cyanomethyl)-3-fluoro-1-[[4-(5-methyl-2-furyl)phenyl]methyl]-4-piperidyl]pyrazol-3-yl]carbamate], the results for the Ki in assay [1] and in assay [2] were 350 pM and 520 pM, respectively. In addition, the IC50 in assay [3] amounted to 19000 pM.

With `COC(=O)Nc1nn(C2(CC#N)CCN(Cc3ccc(-c4ccc(C)o4)c(O)c3)CC2F)cc1C(N)=O` (stereo not drawn) [Example 247, methyl N-[4-carbamoyl-1-[4-(cyanomethyl)-3-fluoro-1-[[3-hydroxy-4-(5-methyl-2-furyl)phenyl]methyl]-4-piperidyl]pyrazol-3-yl]carbamate], the results for the Ki in assay [1] and in assay [2] were 350 pM and 430 pM, respectively. For the same compound, the half-maximal inhibitory concentration (IC50) in assay [3] is 26000 pM.

As for `COC(=O)Nc1nn(C2(CC#N)CCN(Cc3c(F)cc(-c4ccccc4)c(O)c3F)CC2F)cc1C(N)=O` (stereo not drawn) [Example 248, Methyl N-[4-carbamoyl-1-[4-(cyanomethyl)-1-[(2,6-difluoro-3-hydroxy-4-phenylphenyl)methyl]-3-fluoropiperidin-4-yl]-1H-pyrazol-3-yl]carbamate], the results for the inhibition constant (Ki) in assay [1] and in assay [2] were 280 pM and 250 pM, respectively. The IC50 in assay [3] amounted to 30000 pM.

Turning to `COC(=O)Nc1nn(C2(CC#N)CCN(Cc3ccc(-c4csc(C)n4)cc3)CC2F)cc1C(N)=O` (stereo not drawn) [Example 249, methyl N-[4-carbamoyl-1-[4-(cyanomethyl)-3-fluoro-1-[[4-(2-methylthiazol-4-yl)phenyl]methyl]-4-piperidyl]pyrazol-3-yl]carbamate], the inhibitory constant (Ki) in assay [1] is 520 pM; in assay [2] it was 560 pM. Also, the 50% inhibitory concentration (IC50) in assay [3] was 26000 pM.

For the compound `Cc1c(CN2CCC(CC#N)(n3cc(C(N)=O)c(NC(=O)C4CC4C#N)n3)C(F)C2)ccc(-c2ccccc2)c1O` (stereo not drawn) [Example 250, 3-[(2-cyanocyclopropanecarbonyl)amino]-1-[4-(cyanomethyl)-3-fluoro-1-[(3-hydroxy-2-methyl-4-phenyl-phenyl)methyl]-4-piperidyl]pyrazole-4-carboxamide; formic acid], the Ki stood at 310 pM in assay [1] and 840 pM in assay [2]. Further, the concentration for half-maximal inhibition (IC50) in assay [3] was 80000 pM.

As to `COC(=O)Nc1nn(C2(CC#N)CCN(Cc3cnc(-c4ccccc4)cc3F)CC2F)cc1C(N)=O` (stereo not drawn) [Example 251, methyl N-[4-carbamoyl-1-[4-(cyanomethyl)-3-fluoro-1-[(4-fluoro-6-phenyl-3-pyridyl)methyl]-4-piperidyl]pyrazol-3-yl]carbamate], the figures for the Ki in assay [1] and in assay [2] were 340 pM and 300 pM, respectively. The IC50 in assay [3] was determined as 30000 pM.

In the case of `CCc1nc(-c2ccc(CN3CCC(CC#N)(n4cc(C(N)=O)c(NC(=O)OC)n4)C(F)C3)cc2)cs1` (stereo not drawn) [Example 252, methyl N-[4-carbamoyl-1-[4-(cyanomethyl)-1-[[4-(2-ethylthiazol-4-yl)phenyl]methyl]-3-fluoro-4-piperidyl]pyrazol-3-yl]carbamate], the inhibition constant Ki in assay [1] is 300 pM; in assay [2], 520 pM. Moreover, the 50% inhibitory concentration (IC50) in assay [3] was determined as 22000 pM.

On to `Cc1cnn(-c2ccc(CN3CCC(CC#N)(n4cc(C(N)=O)c(NC(=O)C5CC5)n4)CC3)cc2)n1` [Example 253, 1-[4-(cyanomethyl)-1-[[4-(4-methyltriazol-2-yl)phenyl]methyl]-4-piperidyl]-3-(cyclopropanecarbonylamino) pyrazole-4-carboxamide], for which the Ki came to 1000 pM in assay [1] and 5600 pM in assay [2]. Moreover, the IC50 in assay [3] is 56000 pM.

For the origin of these results see patent publication US11731943B2, “Therapeutic compounds, compositions and methods of use thereof” (priority 2016, dated 2023).
